Source: the supplement of paper PMC13380429

How the values were obtained:
Details in all cases: 72 h
Caco-2 [1] = experiment: cell viability relative to DMSO; higher = less toxic
HepG2 [2] = experiment: as above
U2OS [3] = experiment: as above
Vero E6 [4] = experiment: as above
Caco-2 [5] = experiment: relative viability EC50 (midpoint between 100% and the lowest measured viability); higher = less toxic
HepG2 [6] = experiment: as above
U2OS [7] = experiment: as above
Vero E6 [8] = experiment: as above
Caco-2 [9] = experiment: drug sensitivity score (DSS) for viability; higher = more toxic; extreme values may be limits of the assay
HepG2 [10] = experiment: as above
U2OS [11] = experiment: as above
Vero E6 [12] = experiment: as above
Calu-3 = experiment: as above

COC(=O)c1cc(OC)c2c(c1-c1c(CO)cc(OC)c3c1OCO3)OCO2 [bicyclol]
cell viability (Caco-2 [1]; 1 nM): 89.9%
cell viability (Caco-2 [1]; 10 nM): 98.7%
cell viability (Caco-2 [1]; 100 nM): 104%
cell viability (Caco-2 [1]; 1000 nM): 101%
cell viability (Caco-2 [1]; 10000 nM): 101%
cell viability (HepG2 [2]; 1 nM): 90.5%
cell viability (HepG2 [2]; 10 nM): 97.8%
cell viability (HepG2 [2]; 100 nM): 92.1%
cell viability (HepG2 [2]; 1000 nM): 108%
cell viability (HepG2 [2]; 10000 nM): 100%
cell viability (U2OS [3]; 1 nM): 101%
cell viability (U2OS [3]; 10 nM): 97.6%
cell viability (U2OS [3]; 100 nM): 97.8%
cell viability (U2OS [3]; 1000 nM): 98.2%
cell viability (U2OS [3]; 10000 nM): 94.8%
cell viability (Vero E6 [4]; 1 nM): 108%
cell viability (Vero E6 [4]; 10 nM): 105%
cell viability (Vero E6 [4]; 100 nM): 104%
cell viability (Vero E6 [4]; 1000 nM): 99.9%
cell viability (Vero E6 [4]; 10000 nM): 100%
relative viability EC50 (Caco-2 [5]): > 10 µM
relative viability EC50 (HepG2 [6]): > 10 µM
relative viability EC50 (U2OS [7]): > 10 µM
relative viability EC50 (Vero E6 [8]): > 10 µM
drug sensitivity score (Caco-2 [9]): 0
drug sensitivity score (HepG2 [10]): 0
drug sensitivity score (U2OS [11]): 0
drug sensitivity score (Vero E6 [12]): 0

Nc1nc(=O)c(Br)c(-c2ccccc2)[nH]1 [bropirimine]
cell viability (Caco-2 [1]; 1 nM): 96.6%
cell viability (Caco-2 [1]; 10 nM): 91.4%
cell viability (Caco-2 [1]; 100 nM): 102%
cell viability (Caco-2 [1]; 1000 nM): 87.8%
cell viability (Caco-2 [1]; 10000 nM): 112%
cell viability (HepG2 [2]; 1 nM): 102%
cell viability (HepG2 [2]; 10 nM): 118%
cell viability (HepG2 [2]; 100 nM): 92.4%
cell viability (HepG2 [2]; 1000 nM): 103%
cell viability (HepG2 [2]; 10000 nM): 114%
cell viability (U2OS [3]; 1 nM): 92.8%
cell viability (U2OS [3]; 10 nM): 95.1%
cell viability (U2OS [3]; 100 nM): 102%
cell viability (U2OS [3]; 1000 nM): 95.7%
cell viability (U2OS [3]; 10000 nM): 104%
cell viability (Vero E6 [4]; 1 nM): 94.8%
cell viability (Vero E6 [4]; 10 nM): 98.3%
cell viability (Vero E6 [4]; 100 nM): 92.4%
cell viability (Vero E6 [4]; 1000 nM): 98.7%
cell viability (Vero E6 [4]; 10000 nM): 102%
relative viability EC50 (Caco-2 [5]): > 10 µM
relative viability EC50 (HepG2 [6]): > 10 µM
relative viability EC50 (U2OS [7]): > 10 µM
relative viability EC50 (Vero E6 [8]): > 10 µM
drug sensitivity score (Caco-2 [9]): 0
drug sensitivity score (HepG2 [10]): 0
drug sensitivity score (U2OS [11]): 0
drug sensitivity score (Vero E6 [12]): 0

CCN(CC)CCOC(=O)C1(c2ccccc2)CCCC1 [caramiphen]
drug sensitivity score (Calu-3): 0
drug sensitivity score (HepG2 [10]): 0
drug sensitivity score (U2OS [11]): 0
drug sensitivity score (Vero E6 [12]): 0

O=c1c(-c2ccc(O)cc2)coc2cc(O)ccc12 [daidzein]
drug sensitivity score (Calu-3): 0
drug sensitivity score (HepG2 [10]): 0
drug sensitivity score (U2OS [11]): 0
drug sensitivity score (Vero E6 [12]): 0

O=c1oc2ccccc2c(O)c1Cc1c(O)c2ccccc2oc1=O [dicoumarol]
drug sensitivity score (Calu-3): 0
drug sensitivity score (U2OS [11]): 0
drug sensitivity score (Vero E6 [12]): 0

CN[C@@H](C)[C@H](O)c1ccccc1 [ephedrine]
drug sensitivity score (HepG2 [10]): 0
drug sensitivity score (U2OS [11]): 0
drug sensitivity score (Vero E6 [12]): 0

COC(=O)[C@@H]1CC2=CC(=O)CC[C@]2(C)[C@@]23O[C@@H]2C[C@@]2(C)[C@@H](CC[C@@]24CCC(=O)O4)[C@H]13 [eplerenone]
cell viability (Caco-2 [1]; 1 nM): 98.4%
cell viability (Caco-2 [1]; 10 nM): 101%
cell viability (Caco-2 [1]; 100 nM): 85.8%
cell viability (Caco-2 [1]; 1000 nM): 92.8%
cell viability (Caco-2 [1]; 10000 nM): 98.4%
cell viability (Vero E6 [4]; 1 nM): 99.7%
cell viability (Vero E6 [4]; 10 nM): 100%
cell viability (Vero E6 [4]; 100 nM): 99.1%
cell viability (Vero E6 [4]; 1000 nM): 101%
cell viability (Vero E6 [4]; 10000 nM): 95%
relative viability EC50 (Caco-2 [5]): > 10 µM
relative viability EC50 (Vero E6 [8]): > 10 µM
drug sensitivity score (Caco-2 [9]): 0
drug sensitivity score (Vero E6 [12]): 0

NP(N)(=O)NC(=O)c1ccc(F)cc1 [flurofamide]
cell viability (Caco-2 [1]; 1 nM): 95.9%
cell viability (Caco-2 [1]; 10 nM): 96.4%
cell viability (Caco-2 [1]; 100 nM): 90.9%
cell viability (Caco-2 [1]; 1000 nM): 94.7%
cell viability (Caco-2 [1]; 10000 nM): 91%
cell viability (HepG2 [2]; 1 nM): 101%
cell viability (HepG2 [2]; 10 nM): 98.6%
cell viability (HepG2 [2]; 100 nM): 90.1%
cell viability (HepG2 [2]; 1000 nM): 95%
cell viability (HepG2 [2]; 10000 nM): 103%
cell viability (U2OS [3]; 1 nM): 100%
cell viability (U2OS [3]; 10 nM): 102%
cell viability (U2OS [3]; 100 nM): 97.3%
cell viability (U2OS [3]; 1000 nM): 99.4%
cell viability (U2OS [3]; 10000 nM): 96%
cell viability (Vero E6 [4]; 1 nM): 103%
cell viability (Vero E6 [4]; 10 nM): 102%
cell viability (Vero E6 [4]; 100 nM): 103%
cell viability (Vero E6 [4]; 1000 nM): 97.6%
cell viability (Vero E6 [4]; 10000 nM): 102%
relative viability EC50 (Caco-2 [5]): > 10 µM
relative viability EC50 (HepG2 [6]): > 10 µM
relative viability EC50 (U2OS [7]): > 10 µM
relative viability EC50 (Vero E6 [8]): > 10 µM
drug sensitivity score (Caco-2 [9]): 0
drug sensitivity score (HepG2 [10]): 0
drug sensitivity score (U2OS [11]): 0
drug sensitivity score (Vero E6 [12]): 0
